Here are results for 27 compounds from patent publication US6624196B2, “Benzene butyric acids and their derivatives as inhibitors of matrix metalloproteinases” (Warner-Lambert Company, priority 1999, dated 2003).

What all share (type): biochemical
Assay [1] deals with T1, MMP-3CD (stromelysin-1 catalytic domain) (Homo sapiens, UniProt P08254).
T1 construct: Experiments were carried out with the catalytic domains of the proteinases; made in house; host or cells: Escherichia coli
Nature of the assay: Thiopeptolide substrate assay, stromelysin-1 catalytic domain. The conditions noted are these: for IC50: thiopeptolide substrate, catalytic domain; for inhibition at 10 µM: read-out: % inhibition of the enzyme MMP-3CD. On the procedure: (§1) Experiments were carried out with the catalytic domains of the proteinases. […] IC50 values were determined using a thiopeptolide substrate, Ac-Pro-Leu-Gly-thioester-Leu-Leu-Gly-OEt (ye Q. -Z., Johnson L. L., Hupe D. J., and Baragi V., “Purification and Characterization of the Human Stromelysin Catalytic Domain Expressed in Escherichia coli,” Biochemistry, 1992;31:11231-11235; ye Q. -Z., Johnson L. L., yu A. E., and Hupe D., “Reconstructed 19 kDa catalytic domain of gelatinase A is an active proteinase,” Biochemistry, 1995;34:4702-4708.) MMP-13CD was expressed from a synthetic gene and purified from Escherichia coli cell culture according to a previously described method (ye Q. -Z., Johnson L. L., and Baragi V., “Gene synthesis and expression in E. coli for PUMP, a human matrix metalloproteinase,” Biochemical and Biophysical Research Communications, 1992;186:143-149.)

For assay [2], the target named is T2, MMP-2CD (gelatinase A catalytic domain) (Homo sapiens, UniProt P08253, DEL220-393).
T2 construct: Experiments were carried out with the catalytic domains of the proteinases
T2 sequence (P08253 with tags, fused parts or gaps DEL220-393): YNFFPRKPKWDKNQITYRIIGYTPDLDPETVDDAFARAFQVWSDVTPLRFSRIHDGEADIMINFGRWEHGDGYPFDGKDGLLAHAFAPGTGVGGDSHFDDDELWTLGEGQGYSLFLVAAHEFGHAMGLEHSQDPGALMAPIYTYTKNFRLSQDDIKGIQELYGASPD
Nature of the assay: Thiopeptolide substrate assay, gelatinase A catalytic domain. The following applies: for IC50: thiopeptolide substrate, catalytic domain; for inhibition at 10 µM: read-out: % inhibition of the enzyme MMP-2CD. The protocol: as §1

In assay [3] the target is T3, MMP-13CD (collagenase-3 catalytic domain) (Homo sapiens, UniProt P45452).
T3 construct: Experiments were carried out with the catalytic domains of the proteinases; made in house; host or cells: Escherichia coli
Nature of the assay: Thiopeptolide substrate assay, collagenase-3 catalytic domain. The following applies: for IC50: thiopeptolide substrate, catalytic domain; for inhibition at 10 µM: read-out: % inhibition of the enzyme MMP-13CD. On the procedure: as §1

The mark [4] stands for this setting: 10 μM concentration of inhibitor (footnote a, Examples 8 through 25).

T1 sequence (P08254 100-272 limits assumed): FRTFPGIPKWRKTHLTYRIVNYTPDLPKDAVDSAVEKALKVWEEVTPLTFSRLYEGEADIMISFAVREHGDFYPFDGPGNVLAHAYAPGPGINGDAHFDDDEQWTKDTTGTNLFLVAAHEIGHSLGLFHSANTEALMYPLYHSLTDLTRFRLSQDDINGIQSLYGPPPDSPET

In the case of `Cc1ccc(C(=O)Nc2ccc(C(=O)CCC(=O)O)cc2)cc1` [Example 1, 4-[4-(4-Methyl-benzoylamino)-phenyl]-4-oxo-butyric acid], the concentration for half-maximal inhibition (IC50) in assay [1] worked out at 1.55 µM; in assay [2], 0.22 µM; in assay [3], 5.8 µM.
As for `O=C(O)CCC(=O)c1ccc(NC(=O)c2ccc(F)cc2F)cc1` [Example 30, 4-[4-(2,4-Difluoro-benzoylamino)-phenyl]-4-oxo-butyric acid], the IC50 in assay [1] was found to be 5 µM; in assay [2], 0.93 µM.
As for `O=C(O)CCC(=O)c1ccc(NC(=O)Cc2ccccc2)cc1` [Example 33, 4—oxo-4-[4-(phenyl-acetylamino)-phenyl]-butyric acid], the values for the IC50 in assay [1] and in assay [2] were 24 µM and 52 µM, respectively.
In assay [1], `O=C(O)CCC(=O)c1ccc(NC(=O)CCc2ccccc2)cc1` [Example 34, 4—oxo-4-[4-(3-phenyl-propionylamino)-phenyl]-butyric acid] showed an IC50 of 6.6 µM.
Regarding “4-[4-(Benzoylamino)-phenyl]-4-oxo-butyric acid [Example 28]”, the IC50 turned out to be 0.55 µM in assay [1], 0.11 µM in assay [2] and 17 µM in assay [3].
As to `CCCCOc1ccc(C(=O)Nc2ccc(C(=O)CCC(=O)O)cc2)cc1` [Example 17, 4-[4-(4-Butoxy-benzoylamino)-phenyl]-4-oxo-butyric acid], the values for the inhibition at 10 µM in assay [1] (setting [4]), in assay [2] (setting [4]) and in assay [3] (setting [4]) were 78%, 97% and 65%, respectively.
The matching figures for `O=C(O)CCC(=O)c1ccc(NC(=O)c2ccc(Cl)cc2Cl)cc1` [Example 13, 4-[4-(2,4-Dichloro-benzoylamino)-phenyl]-4-oxo-butyric acid]: 11%, 26% and 0%.
As for `O=C(O)CCC(=O)c1ccc(NC(=O)C=Cc2ccccc2)cc1` [Example 19, 4-[4-(Cinnamoylamino)-phenyl]-4-oxo-butyric acid], the inhibition at 10 µM in assay [1] (setting [4]) came to 72%; in assay [2] (setting [4]), 86%; in assay [3] (setting [4]) it was 9%.
Regarding `CCCCCCCC(=O)Nc1ccc(C(=O)CCC(=O)O)cc1` [Example 10, 4-[4-(Octanoylamino)-phenyl]-4-oxo-butyric acid], the inhibition at 10 µM in assay [1] (setting [4]) was determined as 66%; in assay [2] (setting [4]), 79%; in assay [3] (setting [4]), 8%.
The like results for `CCCCCCC(=O)Nc1ccc(C(=O)CCC(=O)O)cc1` [Example 15, 4-[4-(Heptanoylamino)-phenyl]-4-oxo-butyric acid] were, in that order, 70%, 83% and 11%.
The like results for `COc1cccc(C(=O)Nc2ccc(C(=O)CCC(=O)O)cc2)c1` [Example 12, 4-[4-(3-Methoxy-benzoylamino)-phenyl]-4-oxo-butyric acid] were, in that order, 31%, 75% and 11%.
`CCCCCCCCCC(=O)Nc1ccc(C(=O)CCC(=O)O)cc1` [Example 23]: the “% inhibition of the enzyme MMP-3CD” value in assay [1] (setting [4]) came to 39%. Further, in assay [2] (setting [4]), the “% inhibition of the enzyme MMP-2CD” value was found to be 54%. The “% inhibition of the enzyme MMP-13CD” value in assay [3] (setting [4]) worked out at 0%.
As for `O=C(O)CCC(=O)c1ccc(NC(=O)c2ccco2)cc1` [Example 32, 4-[4-(2-Furoylamino)-phenyl]-4-oxo-butyric acid], the IC50 in assay [1] is 19 µM; in assay [2] it was 0.91 µM.
On to `O=C(O)CCC(=O)c1ccc(NC(=O)c2cccs2)cc1` [Example 31, 4—oxo-4-[4-(thiophen-2-yl-carbonylamino)-phenyl]-butyric acid], for which the IC50 in assay [1] amounted to 1.7 µM; in assay [2], 0.13 µM; in assay [3], 19 µM.
In the case of `O=C(O)CCC(=O)c1ccc(NC(=O)c2ccc(Br)cc2)cc1` [Example 20, 4-[4-(4-Bromo-benzoylamino)-phenyl]-4-oxo-butyric acid], the inhibition at 10 µM in assay [1] (setting [4]) was 81%; in assay [2] (setting [4]), 93%; in assay [3] (setting [4]), 30%.
The matching figures for `CCc1ccc(C(=O)Nc2ccc(C(=O)CCC(=O)O)cc2)cc1` [Example 16, 4-[4-(4-Ethyl-benzoylamino)-phenyl]-4-oxo-butyric acid]: 85%, 97% and 60%.
Consider `O=C(O)CCC(=O)c1ccc(NC(=O)c2ccc([N+](=O)[O-])cc2)cc1` [Example 29, 4-[4-(4-Nitro-benzoylamino)-phenyl]-4-oxo-butyric acid], for which the IC50 is 2.4 µM in assay [1], 0.46 µM in assay [2] and 40 µM in assay [3].
On to `CCC(=O)Nc1ccc(C(=O)CCC(=O)O)cc1` [Example 11, 4—oxo-4-[4-(propionylamino)-phenyl]-butyric acid], for which the inhibition at 10 µM in assay [1] (setting [4]) amounted to 21%; in assay [2] (setting [4]), 46%; in assay [3] (setting [4]), 9%.
As to “4-[4-(Carboxy-acetylamino)-phenyl]-4-oxo-butyric acid [Example 36]”, the figures for the IC50 in assay [1] and in assay [2] were 17 µM and 41 µM, respectively.
Consider `CCCCCCCCC(=O)Nc1ccc(C(=O)CCC(=O)O)cc1` [Example 9, 4-[4-(Nonanoylamino)-phenyl]-4-oxo-butyric acid], for which the figures for the inhibition at 10 µM in assay [1] (setting [4]), in assay [2] (setting [4]) and in assay [3] (setting [4]) were 75%, 85% and 3%, respectively.
Turning to `O=C(O)CCC(=O)Nc1ccc(C(=O)CCC(=O)O)cc1` [Example 35, 4-[4-(3—Carboxy-propionylamino)-phenyl]-4-oxo-butyric acid], the IC50 in assay [1] is 13 µM; in assay [2], 38 µM.
Consider `O=C(O)CCC(=O)c1ccc(NC(=O)c2ccc(Cl)c([N+](=O)[O-])c2)cc1` [Example 18, 4-[4-(4—Chloro-3-nitro-benzoylamino)-phenyl]-4-oxo-butyric acid], for which the inhibition at 10 µM is 38% in assay [1] (setting [4]), 82% in assay [2] (setting [4]) and 16% in assay [3] (setting [4]).
With `O=C(O)CCC(=O)c1ccc(NC(=O)c2ccc(Cl)cc2)cc1` [Example 26, 4-[4-(4—Chloro-benzoylamino)-phenl]-4-oxo-butyric acid], the values for the IC50 in assay [1], in assay [2] and in assay [3] were 0.82 µM, 0.12 µM and 24 µM, respectively.
With “4-Hydroxyimino-4-[(4-methyl-benzoyl)amino-phenyl]-butyric acid [Example 2]”, the IC50 in assay [1] turned out to be 1.1 µM; in assay [2], 0.41 µM; in assay [3], 3.8 µM.
In the case of `O=C(O)CCC(=O)c1ccc(NC(=O)c2cccnc2)cc1` [Example 8, 4-[4-(Pyridin-3-yl-carbonylamino)-phenyl]-4-oxo-butyric acid], the inhibition at 10 µM was found to be 3% in assay [1] (setting [4]), 15% in assay [2] (setting [4]) and 0% in assay [3] (setting [4]).
On to `CCCC(=O)Nc1ccc(C(=O)CCC(=O)O)cc1` [Example 22, 4-[4-(Butyrylamino)-phenyl]-4-oxo-butyric acid], for which the values for the inhibition at 10 µM in assay [1] (setting [4]), in assay [2] (setting [4]) and in assay [3] (setting [4]) were 35%, 62% and 0%, respectively.
On to `O=C(O)CCC(=O)c1ccc(NC(=O)CCCc2ccc(Br)cc2)cc1` [Example 14, 4-{4-[4-(4-Bromo-phenyl)-butyrylamino]-phenyl}-4-oxo-butyric acid], for which the inhibition at 10 µM came to 48% in assay [1] (setting [4]), 26% in assay [2] (setting [4]) and 7% in assay [3] (setting [4]).
